Laboratory results taken from article PMC8102404, “A key role for the transporter OAT1 in systemic lipid metabolism” (The Journal of Biological Chemistry, 2021).

Biological target: T1, Organic anion transporter 1 (hOAT1) (Homo sapiens, UniProt Q4U2R8)
T1 construct: gene SLC22A6
T1 sequence (Q4U2R8 1-563): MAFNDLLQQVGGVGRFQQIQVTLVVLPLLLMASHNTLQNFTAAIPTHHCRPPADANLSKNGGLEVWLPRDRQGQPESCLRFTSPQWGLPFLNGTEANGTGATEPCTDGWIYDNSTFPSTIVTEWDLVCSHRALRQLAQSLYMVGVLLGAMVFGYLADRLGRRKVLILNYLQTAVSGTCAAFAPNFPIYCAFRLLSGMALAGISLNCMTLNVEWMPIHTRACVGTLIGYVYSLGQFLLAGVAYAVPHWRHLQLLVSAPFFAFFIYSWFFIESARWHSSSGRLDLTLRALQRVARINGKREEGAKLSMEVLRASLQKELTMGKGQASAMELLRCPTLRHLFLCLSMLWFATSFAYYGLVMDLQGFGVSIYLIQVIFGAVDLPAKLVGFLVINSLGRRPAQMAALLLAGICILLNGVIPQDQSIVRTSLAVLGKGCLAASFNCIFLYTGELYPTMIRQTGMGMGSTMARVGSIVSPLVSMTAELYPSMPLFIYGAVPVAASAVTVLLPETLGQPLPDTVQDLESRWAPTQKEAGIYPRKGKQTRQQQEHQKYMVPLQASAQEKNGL
Experiment: competitive inhibition of 6-carboxyfluorescein uptake in hOAT1-overexpressing HEK293 cells
Type: cell-based

IC50: 103 µM
SMILES: CCCCCCCCCCCCCCC(=O)O [Pentadecanoic acid]
